ChEMBL document CHEMBL1142042, “Nonpeptide alpha(v)beta3 antagonists: identification of potent, chain-shortened 7-oxo RGD mimetics” (Bioorg Med Chem Lett, 2005)

How the values were obtained:
[1] = Partition coefficient (logP); assay type: physicochemical; conditions: octanol/water
Integrin alpha-V/beta-3 = Integrin alpha-V/beta-3 (Homo sapiens, UniProt P05106+P06756); assay: Inhibition of 2(S)-(4-125I-benzenesulphonylamino)-3-4-[2-(5,6,7,8-tetrahydro- [1,8]naphthyridin-2-yl)-ethyl]-benzoylamino-propionic acid binding to alphaV-beta3 integrin; assay type: protein-complex assay
[2] = In vitro inhibition of mouse osteoblast-like 1.8 cells transformation into osteoclasts; assay type: functional
[3] = Clearance when dosed intravenously at 0.2 mpk to dogs; n = 2; assay type: ADME, organism-based, Canis lupus familiaris; conditions: dog, in vivo, iv, 0.2 mg/kg
[4] = Plasma half life when dosed orally at 1 mpk and intravenously at 0.2 mpk to dogs; n = 2; assay type: ADME, organism-based, Canis lupus familiaris; conditions: dog
[5] = Oral bioavailability in dog (dose 1 mg/kg); assay type: ADME, organism-based, Canis lupus familiaris; conditions: in vivo

Integrin alpha-V/beta-3, sequence (P05106 27-788 limits assumed): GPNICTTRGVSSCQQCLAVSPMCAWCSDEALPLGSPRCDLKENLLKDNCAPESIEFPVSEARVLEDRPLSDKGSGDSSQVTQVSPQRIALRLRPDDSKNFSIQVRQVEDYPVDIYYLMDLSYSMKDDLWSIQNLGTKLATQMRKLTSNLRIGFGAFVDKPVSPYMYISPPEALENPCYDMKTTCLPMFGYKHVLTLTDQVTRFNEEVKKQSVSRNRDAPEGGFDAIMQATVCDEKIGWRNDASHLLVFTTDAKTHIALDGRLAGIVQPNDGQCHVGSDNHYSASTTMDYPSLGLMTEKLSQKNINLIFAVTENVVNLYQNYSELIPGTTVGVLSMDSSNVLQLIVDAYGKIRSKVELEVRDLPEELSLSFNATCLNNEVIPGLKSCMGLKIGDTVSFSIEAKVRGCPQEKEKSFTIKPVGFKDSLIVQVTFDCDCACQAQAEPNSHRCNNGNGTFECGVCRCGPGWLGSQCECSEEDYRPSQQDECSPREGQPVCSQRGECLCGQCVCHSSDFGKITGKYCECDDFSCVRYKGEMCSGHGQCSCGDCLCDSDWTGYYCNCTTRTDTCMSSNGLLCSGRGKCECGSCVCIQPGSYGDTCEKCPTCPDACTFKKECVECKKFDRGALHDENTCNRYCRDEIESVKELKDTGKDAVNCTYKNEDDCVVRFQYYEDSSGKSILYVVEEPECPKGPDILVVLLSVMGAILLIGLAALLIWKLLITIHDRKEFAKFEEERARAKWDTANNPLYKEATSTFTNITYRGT
Integrin alpha-V/beta-3, sequence (P06756 31-889 limits assumed): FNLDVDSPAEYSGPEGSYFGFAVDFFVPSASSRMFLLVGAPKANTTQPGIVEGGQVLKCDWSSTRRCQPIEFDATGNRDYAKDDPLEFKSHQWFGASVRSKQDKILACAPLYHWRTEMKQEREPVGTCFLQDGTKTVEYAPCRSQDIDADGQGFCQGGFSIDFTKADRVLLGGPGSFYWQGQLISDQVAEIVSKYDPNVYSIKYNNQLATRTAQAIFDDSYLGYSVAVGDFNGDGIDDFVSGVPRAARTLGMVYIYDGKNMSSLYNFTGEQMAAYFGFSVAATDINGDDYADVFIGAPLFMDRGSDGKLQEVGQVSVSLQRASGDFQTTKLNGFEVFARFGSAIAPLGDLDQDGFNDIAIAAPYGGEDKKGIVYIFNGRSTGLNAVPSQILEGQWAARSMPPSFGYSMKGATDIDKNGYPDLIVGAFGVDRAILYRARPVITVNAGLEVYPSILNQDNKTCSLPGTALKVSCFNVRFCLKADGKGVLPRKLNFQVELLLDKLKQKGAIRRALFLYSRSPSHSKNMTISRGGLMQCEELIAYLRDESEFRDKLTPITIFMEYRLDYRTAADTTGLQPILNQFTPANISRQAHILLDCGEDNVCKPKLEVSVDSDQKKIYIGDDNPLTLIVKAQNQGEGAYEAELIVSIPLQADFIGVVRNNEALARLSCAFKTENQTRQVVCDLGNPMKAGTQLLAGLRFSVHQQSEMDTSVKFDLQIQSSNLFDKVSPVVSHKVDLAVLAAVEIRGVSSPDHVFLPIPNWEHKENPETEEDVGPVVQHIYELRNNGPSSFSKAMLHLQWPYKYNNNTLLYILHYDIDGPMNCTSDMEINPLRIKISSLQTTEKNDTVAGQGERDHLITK
Integrin alpha-V/beta-3, sequence (P06756 891-1048 limits assumed): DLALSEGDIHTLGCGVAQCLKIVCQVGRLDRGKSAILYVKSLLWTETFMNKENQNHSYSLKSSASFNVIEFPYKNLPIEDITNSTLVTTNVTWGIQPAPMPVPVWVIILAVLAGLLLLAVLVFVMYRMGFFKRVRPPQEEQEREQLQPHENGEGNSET

SMILES	logP [1]	IC50 (Integrin alpha-V/beta-3)	IC50 [2]	clearance [3]	half-life [4]	bioavailability [5]
COc1ccc([C@@H](CCC[C@@H](O)CCc2ccc3c(n2)NCCC3)CC(=O)O)cn1	0	0.24 nM	36 nM			
COc1ccc([C@@H](CCCCCCc2ccc3c(n2)NCCC3)CC(=O)O)cn1			39 nM	4 mL/min/kg	540 min	
COc1ccc([C@@H](CCCC(=O)CCc2ccc3c(n2)NCCC3)CC(=O)O)cn1	0	0.16 nM	12 nM	6.7 mL/min/kg	420 min	75%
COc1ccc([C@@H](CCC[C@H](O)CCc2ccc3c(n2)NCCC3)CC(=O)O)cn1	0.1	0.24 nM	8 nM	2.5 mL/min/kg	366 min	60%
